For 24 compounds, IC50 results are on record in patent US20250236608A1, “EGFR INHIBITORS” (Blueprint Medicines Corporation, priority 2022, published 2025).

Test [1] addresses pEGFR (Tyr1068) in PC-9 cells (Ex19Del) (Homo sapiens (Human), UniProt P00533, DEL746-750). As to the kind of experiment: PC-9 pEGFR AlphaLISA assay. It counts as cell-based. As to conditions: 4 hours incubation, p-EGFR (Tyr1068) AlphaLISA, read-out: Ext pEGFR_PC-9 Ex19Del IC50. Summed up:
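Readout: AlphaLISA SureFire Ultra signal in cell lysates, with acceptor beads for 1.5-2 h and donor beads overnight at room temperature in the dark. Beforehand, unstimulated cells in 10% FBS medium received compounds (10 points, 4-fold steps) for 4 h at 37° C. IC50 came from percent inhibition curves.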
On the technique in general: Alpha assays give light when donor and acceptor beads are brought close together.

A further test addresses EGFR (d746-750) (Homo sapiens (Human), UniProt P00533, DEL746-750). As to the kind of experiment: Biochemical EGFR inhibition assay, EGFR (d746-750). To be noted: Caliper mobility shift; 1.0 mM ATP or ATP Km; read-out: Enz EGFR_Exon19-del746-750 IC50.
In another test the target is EGFR L858R (Homo sapiens (Human), UniProt P00533, L858R). As to the kind of experiment: Biochemical EGFR inhibition assay, EGFR L858R. As to conditions: Caliper mobility shift; 1.0 mM ATP or ATP Km; read-out: Enz EGFR_L858R IC50.
Chain of EGFR L858R (P00533 25-1210 L858R): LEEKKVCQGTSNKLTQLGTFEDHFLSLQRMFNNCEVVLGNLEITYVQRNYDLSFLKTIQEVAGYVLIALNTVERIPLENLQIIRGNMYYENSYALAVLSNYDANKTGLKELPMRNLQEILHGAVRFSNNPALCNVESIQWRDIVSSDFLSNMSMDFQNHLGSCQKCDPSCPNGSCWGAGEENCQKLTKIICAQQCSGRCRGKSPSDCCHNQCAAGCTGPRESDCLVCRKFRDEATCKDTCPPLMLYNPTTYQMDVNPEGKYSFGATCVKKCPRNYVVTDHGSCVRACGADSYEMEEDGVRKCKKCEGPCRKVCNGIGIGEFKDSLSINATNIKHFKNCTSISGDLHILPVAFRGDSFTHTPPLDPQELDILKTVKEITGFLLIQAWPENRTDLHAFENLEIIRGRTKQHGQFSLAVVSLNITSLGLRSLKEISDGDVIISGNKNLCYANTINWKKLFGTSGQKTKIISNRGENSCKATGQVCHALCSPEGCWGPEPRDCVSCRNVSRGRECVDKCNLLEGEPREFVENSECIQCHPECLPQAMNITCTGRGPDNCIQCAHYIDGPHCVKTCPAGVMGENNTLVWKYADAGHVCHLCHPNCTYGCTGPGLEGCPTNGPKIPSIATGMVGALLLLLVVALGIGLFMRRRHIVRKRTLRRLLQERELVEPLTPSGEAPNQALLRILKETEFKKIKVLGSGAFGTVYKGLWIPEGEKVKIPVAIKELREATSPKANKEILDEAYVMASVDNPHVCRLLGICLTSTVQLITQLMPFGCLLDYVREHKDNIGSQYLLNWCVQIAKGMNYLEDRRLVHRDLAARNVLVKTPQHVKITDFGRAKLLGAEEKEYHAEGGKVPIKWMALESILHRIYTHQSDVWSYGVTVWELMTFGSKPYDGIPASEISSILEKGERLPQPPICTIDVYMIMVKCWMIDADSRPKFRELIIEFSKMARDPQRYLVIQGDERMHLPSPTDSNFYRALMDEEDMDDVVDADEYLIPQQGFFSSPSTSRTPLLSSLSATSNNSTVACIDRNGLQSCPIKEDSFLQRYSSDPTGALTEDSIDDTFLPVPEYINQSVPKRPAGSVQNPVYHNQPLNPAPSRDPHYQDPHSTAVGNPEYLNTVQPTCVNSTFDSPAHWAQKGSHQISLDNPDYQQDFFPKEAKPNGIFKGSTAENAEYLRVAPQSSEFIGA

pIC50: −log10 of the molar value.

Chain of EGFR (d746-750) (P00533 other isoform, or with tags, fused parts or gaps del 1-694/del 746-750 limits assumed): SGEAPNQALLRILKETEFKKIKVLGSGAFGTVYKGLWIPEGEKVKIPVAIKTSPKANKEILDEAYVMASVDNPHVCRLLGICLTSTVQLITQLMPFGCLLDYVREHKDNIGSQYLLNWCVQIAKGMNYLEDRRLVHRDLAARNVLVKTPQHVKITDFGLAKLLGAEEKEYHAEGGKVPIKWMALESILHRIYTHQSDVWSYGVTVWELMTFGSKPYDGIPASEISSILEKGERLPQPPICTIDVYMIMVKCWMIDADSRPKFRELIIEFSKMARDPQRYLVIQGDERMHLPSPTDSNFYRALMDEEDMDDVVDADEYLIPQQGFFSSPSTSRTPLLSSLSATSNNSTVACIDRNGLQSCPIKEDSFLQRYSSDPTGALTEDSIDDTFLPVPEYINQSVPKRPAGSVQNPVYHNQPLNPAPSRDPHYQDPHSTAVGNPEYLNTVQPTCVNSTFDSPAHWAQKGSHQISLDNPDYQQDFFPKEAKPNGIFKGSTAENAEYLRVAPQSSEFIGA
Chain of pEGFR (Tyr1068) in PC-9 cells (Ex19Del) (P00533 other isoform, or with tags, fused parts or gaps del 746-750): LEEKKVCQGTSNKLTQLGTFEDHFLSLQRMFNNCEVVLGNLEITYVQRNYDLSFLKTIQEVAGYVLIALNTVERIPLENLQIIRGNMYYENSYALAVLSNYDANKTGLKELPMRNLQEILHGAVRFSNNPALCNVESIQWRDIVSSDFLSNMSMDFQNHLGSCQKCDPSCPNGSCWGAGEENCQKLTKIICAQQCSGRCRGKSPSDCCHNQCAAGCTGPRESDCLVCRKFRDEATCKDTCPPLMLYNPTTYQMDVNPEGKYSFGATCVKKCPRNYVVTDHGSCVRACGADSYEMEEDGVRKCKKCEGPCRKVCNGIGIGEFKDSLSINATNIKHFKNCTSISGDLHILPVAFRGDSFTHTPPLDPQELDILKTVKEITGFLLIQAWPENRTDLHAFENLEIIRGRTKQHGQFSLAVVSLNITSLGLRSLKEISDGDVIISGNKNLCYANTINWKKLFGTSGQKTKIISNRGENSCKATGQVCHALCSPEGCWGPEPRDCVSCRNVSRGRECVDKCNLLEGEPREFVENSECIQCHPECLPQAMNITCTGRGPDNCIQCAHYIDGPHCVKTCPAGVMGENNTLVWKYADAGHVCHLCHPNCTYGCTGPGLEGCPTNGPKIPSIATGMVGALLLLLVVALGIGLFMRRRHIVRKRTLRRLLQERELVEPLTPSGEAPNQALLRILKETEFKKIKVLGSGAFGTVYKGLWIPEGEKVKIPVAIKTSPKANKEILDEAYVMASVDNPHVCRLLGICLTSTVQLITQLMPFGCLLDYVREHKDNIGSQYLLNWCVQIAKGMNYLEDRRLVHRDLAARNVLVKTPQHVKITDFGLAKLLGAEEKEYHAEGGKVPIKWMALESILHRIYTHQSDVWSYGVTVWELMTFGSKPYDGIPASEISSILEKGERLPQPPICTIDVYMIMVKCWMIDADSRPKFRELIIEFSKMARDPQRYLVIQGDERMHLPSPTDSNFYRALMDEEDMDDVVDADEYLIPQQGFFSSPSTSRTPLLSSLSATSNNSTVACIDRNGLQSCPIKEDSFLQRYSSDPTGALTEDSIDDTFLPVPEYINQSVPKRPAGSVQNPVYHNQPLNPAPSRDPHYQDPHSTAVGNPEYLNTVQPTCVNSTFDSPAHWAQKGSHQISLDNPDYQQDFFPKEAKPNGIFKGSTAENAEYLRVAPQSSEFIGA

As usually defined, the pIC50 is −log10 of the IC50, conventionally taken in molar units. As for `COc1cc2ncnc(-c3cn(C4COC4)nc3-c3ccccc3)c2cc1OC(=O)N1CCN(C)C[C@@H]1C` [Example 69, 7-methoxy-4-(1-(oxetan-3-yl)-3-phenyl-1H-pyrazol-4-yl)quinazolin-6-yl (S)-2,4-dimethylpiperazine-1-carboxylate], the pIC50 is 8.24 in test [1], 8.51 at EGFR (d746-750) and 8.15 at EGFR L858R.

Take `COc1cc2ncnc(-c3cn(CC(F)F)nc3-c3ccccc3)c2cc1OC(=O)N1CCN(C)C[C@@H]1C` [Example 70, 4-(1-(2,2-difluoroethyl)-3-phenyl-1H-pyrazol-4-yl)-7-methoxyquinazolin-6-yl (S)-2,4-dimethylpiperazine-1-carboxylate]: the figures for the pIC50 (in test [1]; at EGFR (d746-750); on EGFR L858R) were 8.80, 8.77 and 8.57, respectively.

As for `CC(C)Oc1cc2ncnc(-c3cn(C)nc3-c3ccccc3)c2cc1OC(=O)N1CCOC[C@H]1C` [Example 71, 7-isopropoxy-4-(1-methyl-3-phenyl-1H-pyrazol-4-yl)quinazolin-6-yl (R)-3-methylmorpholine-4-carboxylate], the values for the pIC50 (in test [1]; at EGFR (d746-750); on EGFR L858R) were 8.17, 8.60 and 8.35, respectively.

Take `COc1cc2ncnc(-c3cn(C)nc3-c3ccccc3)c2cc1OC(=O)N1CCO[C@@H](C)[C@@H]1C` [Example 72, 7-methoxy-4-(1-methyl-3-phenyl-1H-pyrazol-4-yl)quinazolin-6-yl (2S,3S)-2,3-dimethylmorpholine-4-carboxylate]: the pIC50 is 8.29 in test [1], 8.77 at EGFR (d746-750) and 8.42 on EGFR L858R.

Turning to `CCOc1cc2ncnc(-c3cn(C)nc3-c3ccccc3)c2cc1OC(=O)N1CCO[C@H](C)C1` [Example 73, 7-ethoxy-4-(1-methyl-3-phenyl-1H-pyrazol-4-yl)quinazolin-6-yl (R)-2-methylmorpholine-4-carboxylate], the figures for the pIC50 (in test [1]; on EGFR (d746-750); at EGFR L858R) were 7.95, 8.80 and 8.54, respectively.

Regarding `COc1cc2ncnc(-c3cn(C)nc3-c3ccccc3F)c2cc1OC(=O)N1CCOC[C@@H]1C` [Example 74, 4-(3-(2-fluorophenyl)-1-methyl-1H-pyrazol-4-yl)-7-methoxyquinazolin-6-yl (S)-3-methylmorpholine-4-carboxylate], the pIC50 in test [1] was 8.35; at EGFR (d746-750) it was 6.18; at EGFR L858R, 6.08.

For the compound `CCN1CCN(C(=O)Oc2cc3c(-c4cn(C)nc4-c4ccccc4)ncnc3cc2OC)[C@@H](C)C1` [Example 75, 7-methoxy-4-(1-methyl-3-phenyl-1H-pyrazol-4-yl)quinazolin-6-yl (S)-4-ethyl-2-methylpiperazine-1-carboxylate], the pIC50 in test [1] is 8.44; at EGFR (d746-750), 8.66; on EGFR L858R, 8.44.

Consider `COc1cc2ncnc(-c3cn(CC(F)F)nc3-c3ccccc3)c2cc1OC(=O)N1CCOC[C@@H]1C` [Example 76, 4-(1-(2,2-difluoroethyl)-3-phenyl-1H-pyrazol-4-yl)-7-methoxyquinazolin-6-yl (S)-3-methylmorpholine-4-carboxylate], for which the negative-log IC50 (pIC50) in test [1] is 8.85; on EGFR (d746-750), 9.05; at EGFR L858R it was 8.68.

In the case of `COc1cc2ncnc(-c3cn(C)nc3-c3ccccc3)c2cc1OC(=O)N1CCN(C)C(C)(C)C1` [Example 77, 7-methoxy-4-(1-methyl-3-phenyl-1H-pyrazol-4-yl)quinazolin-6-yl 3,3,4-trimethylpiperazine-1-carboxylate], the pIC50 in test [1] was 8.01; at EGFR (d746-750), 8.46; on EGFR L858R, 8.14.

`COc1cc2ncnc(-c3cn(C)nc3-c3ccccc3)c2cc1OC(=O)N1CCN(C)CC1(C)C` [Example 78, 7-methoxy-4-(1-methyl-3-phenyl-1H-pyrazol-4-yl)quinazolin-6-yl 2,2,4-trimethylpiperazine-1-carboxylate]: the values for the pIC50 (in test [1]; at EGFR (d746-750); on EGFR L858R) were 8.09, 8.62 and 8.15, respectively.

Turning to `COc1cc2ncnc(-c3cn(C)nc3-c3ccccc3)c2cc1OC(=O)N1[C@@H](C)CN(C)C[C@@H]1C` [Example 79, 7-methoxy-4-(1-methyl-3-phenyl-1H-pyrazol-4-yl)quinazolin-6-yl (2S,6S)-2,4,6-trimethylpiperazine-1-carboxylate], the pIC50 was 8.02 in test [1], 8.51 at EGFR (d746-750) and 8.19 at EGFR L858R.

On to `COc1cc2ncnc(-c3cn(C)nc3-c3ccccc3)c2cc1OC(=O)N1CCOC(C)(C)C1` [Example 80, 7-methoxy-4-(1-methyl-3-phenyl-1H-pyrazol-4-yl)quinazolin-6-yl 2,2-dimethylmorpholine-4-carboxylate], for which the pIC50 in test [1] is 8.02; at EGFR (d746-750), 8.51; on EGFR L858R it was 8.22.

As to `COc1cc2ncnc(-c3cn(C)nc3-c3ccccc3)c2cc1OC(=O)N1CCOCC1(C)C` [Example 81, 7-methoxy-4-(1-methyl-3-phenyl-1H-pyrazol-4-yl)quinazolin-6-yl 3,3-dimethylmorpholine-4-carboxylate], the values for the pIC50 (in test [1]; at EGFR (d746-750); at EGFR L858R) were 8.28, 8.66 and 8.21, respectively.

For `COc1cc2ncnc(-c3cn(C)nc3-c3ccccc3)c2cc1OC(=O)N1CCNCC1(C)C` [Example 86, 7-methoxy-4-(1-methyl-3-phenyl-1H-pyrazol-4-yl)quinazolin-6-yl 2,2-dimethylpiperazine-1-carboxylate], the results for the pIC50 (in test [1]; on EGFR (d746-750); at EGFR L858R) were 8.24, 8.60 and 8.30, respectively.

Regarding `COc1cc2ncnc(-c3cn(C)nc3-c3ccccc3)c2cc1OC(=O)N1[C@H](C)CNC[C@@H]1C` [Example 87, 7-methoxy-4-(1-methyl-3-phenyl-1H-pyrazol-4-yl)quinazolin-6-yl (2R,6S)-2,6-dimethylpiperazine-1-carboxylate], the figures for the pIC50 (in test [1]; at EGFR (d746-750); on EGFR L858R) were 8.24, 8.68 and 8.31, respectively.

Take `COc1cc2ncnc(-c3cn(C)nc3-c3ccccc3)c2cc1OC(=O)N1[C@@H](C)CNC[C@@H]1C` [Example 88, 7-methoxy-4-(1-methyl-3-phenyl-1H-pyrazol-4-yl)quinazolin-6-yl (2S,6S)-2,6-dimethylpiperazine-1-carboxylate]: the pIC50 was 8.12 in test [1], 8.72 on EGFR (d746-750) and 8.49 on EGFR L858R.

Turning to `COc1cc2ncnc(-c3cn(C)nc3-c3ccccc3)c2cc1OC(=O)N1[C@H](C)CN(C)C[C@H]1C` [Example 89, 7-methoxy-4-(1-methyl-3-phenyl-1H-pyrazol-4-yl)quinazolin-6-yl (2R,6R)-2,4,6-trimethylpiperazine-1-carboxylate], the pIC50 in test [1] was 8.24; at EGFR (d746-750), 8.72; at EGFR L858R, 8.27.

In the case of `[2H]C([2H])([2H])N1CCN(C(=O)Oc2cc3c(-c4cn(C)nc4-c4ccccc4)ncnc3cc2OC)[C@@H](C)C1` [Example 93, 7-methoxy-4-(1-methyl-3-phenyl-1H-pyrazol-4-yl)quinazolin-6-yl(S)-2-methyl-4-(methyl-d3) piperazine-1-carboxylate], the pIC50 is 8.37 in test [1], 8.60 on EGFR (d746-750) and 8.37 on EGFR L858R.

As to `COc1cc2ncnc(-c3cn(C)nc3-c3ccccc3)c2cc1OC(=O)N1CCO[C@H](C)[C@@H]1C` [Example 94, 7-methoxy-4-(1-methyl-3-phenyl-1H-pyrazol-4-yl)quinazolin-6-yl (2R,3S)-2,3-dimethylmorpholine-4-carboxylate], the pIC50 in test [1] was 7.95; at EGFR (d746-750), 8.49; on EGFR L858R, 8.19.

On to `CCn1cc(-c2ncnc3cc(OC)c(OC(=O)N4CCN(C)C[C@@H]4C)cc23)c(-c2ccccc2)n1` [Example 95, 4-(1-ethyl-3-phenyl-1H-pyrazol-4-yl)-7-methoxyquinazolin-6-yl(S)-2,4-dimethylpiperazine-1-carboxylate], for which the pIC50 in test [1] was 8.62; on EGFR (d746-750), 8.77; on EGFR L858R, 8.52.

`CCOc1cc2ncnc(-c3cn(C)nc3-c3ccccc3)c2cc1OC(=O)N1CCN(C)C[C@@H]1C` [Example 96, 7-ethoxy-4-(1-methyl-3-phenyl-1H-pyrazol-4-yl)quinazolin-6-yl(S)-2,4-dimethylpiperazine-1-carboxylate]: the values for the pIC50 (in test [1]; at EGFR (d746-750); at EGFR L858R) were 8.72, 8.96 and 8.80, respectively.

Consider `COc1cc2ncnc(-c3cn(C)nc3-c3ccccc3)c2cc1OC(=O)N1C[C@H](C)N(C)C[C@@H]1C` [Example 97, 7-methoxy-4-(1-methyl-3-phenyl-1H-pyrazol-4-yl)quinazolin-6-yl (2S,5S)-2,4,5-trimethylpiperazine-1-carboxylate], for which the pIC50 in test [1] was 7.91; at EGFR (d746-750) it was 8.31; at EGFR L858R it was 8.11.

As for `COc1cc2ncnc(-c3cn(C)nc3-c3ccccc3)c2cc1OC(=O)N1CCN(C)[C@H](C)[C@@H]1C` [Example 98, 7-methoxy-4-(1-methyl-3-phenyl-1H-pyrazol-4-yl)quinazolin-6-yl (2S,3R)-2,3,4-trimethylpiperazine-1-carboxylate], the pIC50 was 8.03 in test [1], 8.47 at EGFR (d746-750) and 8.17 on EGFR L858R.

Regarding `CCOc1cc2ncnc(-c3cn(C)nc3-c3ccccc3)c2cc1CO` [Example 99, (7-ethoxy-4-(1-methyl-3-phenyl-1H-pyrazol-4-yl)quinazolin-6-yl)methanol], the pIC50 is 8.38 in test [1], 8.96 at EGFR (d746-750) and 8.70 on EGFR L858R.
